Assay results as given in patent US20020138856A1, “Compositions and methods useful for treatment of depressive disorder based on an animal model” (Northwestern University, priority 1998, published 2002).
“Also recorded” adds a separate entry of the source.

Tests used:
WMI rats = test: Forced swim test (FST) immobility before and after drug administration, WMI rats; assay type: in vivo, rat; settings: for effect on alleviating depression (FST immobility): desipramine administered three times within 24 hours
From the text: (§1) FIG. 6 is a graph depicting the immobility in the forced swim test of 14 week-old animals before and after administration of either desipramine, fluoxetine, or water in WMI and WLI animals. Shaded squares and circles indicate immobility after treatment, unshaded squares and circles indicate immobility before treatment, squares indicate WMI animals, and circles indicate WLI animals.
(§2) The main test of behavior in the rats of the invention is the FST. The general parameters governing this test are as follows, it being understood that variations of the test are permissible within acceptable bounds. The test utilizes a glass water tank 30 cm in diameter and 45 cm tall wherein the water level is 15 cm from the top and the water temperature is 25° C. The procedure for the test is adapted from Porsolt et al. and Detke et al., as described in Detke et al., 1995, Psychopharm. 121:66-72). Rats are individually placed in the water tank for 15 minutes and are then removed from the tank and returned to their cages. […] This 5 minute test session is recorded on videotape. The performance of the rat on the tape is analyzed and subsequently scored using the scoring system developed by Detke et al. (1995, Psychopharm. 121:66-72) by a trained observer, who is unaware as to the various treatment conditions of the rats. […] The following behaviors are recorded: immobility, swimming, and climbing. The rats are scored at 5 second intervals, thus, there are 12 intervals per minute sampled. […] By way of example, if a rat was scored as immobile at 13 of the […], the FST score would be 13. […]
(§3) The WMI and WLI rats of the invention are useful for screening compounds effective for modulation, preferably, alleviation of depression and other behavioral and depressive disorders. […] WMI and WLI rats are administered a test compound or a placebo at a dosage, a route of administration and for a period of time which is determined by the artisan skilled in such procedures, following standard protocols such as those described, for example, in Remington's Pharmaceutical Sciences, Mack Publishing Co., Easton, Pa., 1985. […]

WLI rats = test: Forced swim test (FST) immobility before and after drug administration, WLI rats; assay type: in vivo, rat
From the text: as §1, §2, §3

WKY rats = settings: chronic and subacute treatment (three times per day between first and third swim); cited from earlier work

Compound | immobility time in the forced swim test after administration (WMI rats; 14 week-old, before treatment about nineteen 5-second intervals, FIG. 6) | effect on alleviating depression (FST immobility) (WMI rats) | effect on alleviating depression (FST immobility) (WLI rats) | immobility time in the forced swim test after administration (WLI rats; 14 week-old, before treatment about nine 5-second intervals, change not significant, FIG. 6) | effect on depressive behavior (immobility, struggling in forced swim test) (WKY rats)
CNCCCN1c2ccccc2CCc2ccccc21 [Desipramine, desipramine] | about five | responsive; also recorded: effectively alleviated depression | do not respond; also recorded: resistant to treatment | about six | decreased the depressive behavior
CNCCC(Oc1ccc(C(F)(F)F)cc1)c1ccccc1 (centres unmarked) [Fluoxetine, fluoxetine] | – | virtually no effect | virtually no effect | – | –
CN(C)CCCN1c2ccccc2CCc2ccccc21 [imipramine] | – | – | – | – | decreased the depressive behavior
